Earlier results, collected in patent publication US20050042177A1, “Novel compositions of sildenafil free base” (Elan Pharma International Ltd., priority 2003, published 2005).

Legend:
PDE6 = details: PDE5 versus PDE6
[1] = 100 mg oral dose, healthy adult males

SMILES | potency for PDE5 as compared to PDE6 (PDE6) | Tmax [1] | mean Cmax [1] | t1/2 [1] | absolute bioavailability (in vivo)
CCCc1nn(C)c2c(=O)[nH]c(-c3cc(S(=O)(=O)N4CCN(C)CC4)ccc3OCC)nc12 [Sildenafil, 1-[[3-(6,7-dihydro-1-methyl-7-oxo-3-propyl-1H-pyrazolo[4,3-d]pyrimidin-5-yl)-4-ethoxyphenyl]sulfonyl]-4-methylpiperazine] | approximately 10 fold | – | – | – | –
CCCc1nn(C)c2c(=O)[nH]c(-c3cc(S(=O)(=O)N4CCN(C)CC4)ccc3OCC)nc12.O=C(O)CC(O)(CC(=O)O)C(=O)O [Sildenafil citrate, 1-[[3-(6,7-dihydro-1-methyl-7-oxo-3-propyl-1H-pyrazolo[4,3-d]pyrimidin-5-yl)-4-ethoxyphenyl]sulfonyl]-4 methylpiperazine citrate] | – | 1 h | 440 ng/mL | about 4 hours | 40%
